US20200024315A1, “ANTIMICROBIAL PEPTIDES AND METHODS OF TREATING GRAM-NEGATIVE PATHOGENS” (THE REGENTS OF THE UNIVERSITY OF COLORADO, a body corporate, priority 2017, published 2020)
Blank lines part the entries; values can stand above or below the molecule they belong to. Square brackets hold non-standard residues; d marks the D form. Orn = NCCC[C@H](N)C(=O)O

Columns and labels:
[1] = Circular dichroism (CD) spectroscopy, characterization of helical structure; type: physicochemical; settings: for α-helical content (% helix) in aqueous conditions: aqueous benign buffer pH 7.0, 5° C.; for inducible helical structure Δ[Θ]222 nm TFE-Aqueous: difference 50% TFE minus aqueous buffer; for helical structure in hydrophobic medium containing 50% TFE: buffer pH 7.0 / 50% TFE, 5° C.
[2] = test system: A. baumannii compared to P. aeruginosa; experiment: Selectivity (MICGM P. aeruginosa/MICGM A. baumannii); type: cell-based, Acinetobacter baumannii
[3] = Temperature profiling in RP-HPLC (peptide self-association); type: physicochemical; settings: RP-HPLC pH 2, 5° C.-77° C., maximum change in retention time relative to random coil standards
Description: Peptide self-association, the ability to oligomerize/dimerize in aqueous solution, is an important parameter that can improve antimicrobial activity while removing toxicity. The inventors hypothesize that the monomeric random-coil antimicrobial peptides in aqueous solution are best suited to pass through a polysaccharide capsule, the outer membrane lipopolysaccharide and the cell wall peptidoglycan layer of microorganisms prior to penetration into the cytoplasmic membrane, induction of alpha-helical structure and disruption of membrane structure to kill target cells. […] In the present study, the ability of the AMPs to self-associate was determined by a technique developed in the inventors' laboratory, referred to as RP-HPLC temperature profiling at pH 2 over the temperature range of 5° C. to 80° C. […]
Purified peptides were analyzed on an Agilent 1200 series liquid chromatograph for temperature profiling using a Zorbax 300 SB-C8 column (150 mm×2.1 mm I.D.; 5 μm particle size, 300 Å pore size) from Agilent Technologies. […]
FIGS. 5-8 illustrate self-association profiles of the α-helical AMP analogs as determined by temperature profiling in RP-HPLC. […]

human erythrocytes = experiment: Hemolytic activity against human erythrocytes; type: cell-based; settings: 1% human erythrocytes, 18 h, 37° C.
Description: Peptide samples (concentrations determined by amino acid analysis) were added to 1% human erythrocytes in phosphate-buffered saline (100 mM NaCl, 80 mM Na2HPO4, 20 mM NaH2PO4, pH 7.4) and the reaction mixtures were incubated at 37° C. for 18 h in microtiter plates. Two-fold serial dilutions of the peptide samples were carried out. This determination was made by withdrawing aliquots from the hemolysis assays and removing unlysed erythrocytes by centrifugation (800×g). Hemoglobin release was determined spectrophotometrically at 570 nm. The control for 100% hemolysis was a sample of erythrocytes treated with water. The control for no release of hemoglobin was a sample of 1% erythrocytes without any peptide added. Since erythrocytes were in an isotonic medium, no detectable release (<1% of that released upon complete hemolysis) of hemoglobin was observed from this control during the assay. The hemolytic activity is generally determined as the peptide concentration that causes 50% hemolysis of erythrocytes after 18 h (HC50). HC50 was determined from a plot of percent lysis versus peptide concentration (microM). If 50% hemolysis could not be reached, the inventors used HC30 values (30% hemolysis).

Pseudomonas aeruginosa = experiment: Antimicrobial activity against Pseudomonas aeruginosa; type: cell-based
Description: In the current study de novo designed AMPs were tested against seven diverse clinical isolates of the Gram-negative pathogen A. baumannii and seven A. baumannii strains resistant to polymyxin B and polymyxin E (Colistin). In addition, the inventors tested these AMPs against six diverse clinical isolates of the Gram-negative pathogen, P. aeruginosa, and nine Gram-positive methicillin-sensitive S. aureus clinical isolates and eight Gram-positive methicillin/oxacillin-resistant S. aureus strains. This testing allows for the determination of pathogen selectivity between Gram-negative and Gram-positive pathogens as the location of the positively charged residues on the polar face is varied.
The minimal inhibitory concentration (MIC) is defined as the lowest peptide concentration that inhibited bacterial growth. MICs were measured by a standard microtiter dilution method in Mueller Hinton (MH) medium. Briefly, cells were grown overnight at 37° C. in MH broth and were diluted in the same medium. Serial dilutions of the peptides were added to the microtiter plates in a volume of 50 microL, followed by the addition of 50 microL of bacteria to give a final inoculum of 5×10^5 colony-forming units (CFU)/mL. The plates were incubated at 37° C. for 24 h, and the MICs were determined.

D52 = experiment: RP-HPLC temperature profiling 5-77 C, pH 2; self-association (monomer-dimer) of the peptide
D26 (K13A, K16A) = experiment: as above

Molecule: Ac-ALKKLLSTLSSARSSRLSTLLKALKK-NH2 [D58]
- α-helical content (% helix) in aqueous conditions [1]: 7.2%
- inducible helical structure Δ[Θ]222 nm TFE-Aqueous [1]: 750

Molecule: Ac-KLKSLLSTLSSAAKKALSTLLSALSK-NH2 [D26 (K13A, K16A)]
- helical structure in aqueous buffer conditions (in words) ([1]; 50 mM potassium phosphate buffer, pH 7.0, 100 mM KCl): α-helical

Molecule: Ac-KLKSLLKTLSKAKKKKLKTLLKALSK-NH2 [D16, reference compound]
- selectivity factor (MICGM P. aeruginosa/MICGM A. baumannii) [2]: 2.7

Molecule: Ac-ALKKLLSTLSSAKSSKLSTLLKALKK-amide (Ac-ALKKLLSTLSSAKSSKLSTLLKALKK-NH2) [D52]
- α-helical content (% helix) in aqueous conditions [1]: 13.7%
- helical structure in hydrophobic medium containing 50% TFE [1]: 100%
- inducible helical structure Δ[Θ]222 nm TFE-Aqueous [1]: 1422
- peptide self-association parameter PA [3]: 7.78 min

Molecule: Ac-ALKKLLSTLSSA[Orn]SS[Orn]LSTLLKALKK-NH2 [D56]
- α-helical content (% helix) in aqueous conditions [1]: 3.5%
- helical structure in hydrophobic medium containing 50% TFE [1]: 27.2%

Molecule: Ac-AL[Orn][Orn]LLSTLSSAKSSKLSTLL[Orn]AL[Orn][Orn]-NH2 [D59]
- α-helical content (% helix) in aqueous conditions [1]: 6.9%
- inducible helical structure Δ[Θ]222 nm TFE-Aqueous [1]: 1061

Molecule: Ac-KLKSLLSTLSSAKKKKLSTLLSALSK-NH2 [D26]
- α-helical content (% helix) in aqueous conditions [1]: 8.9%
- improvement in selectivity (MICGM P. aeruginosa/MICGM A. baumannii) [2]: 25 fold
- hemolytic activity HC50 (human erythrocytes): > 1776 µM
- activity against Pseudomonas aeruginosa (in words) (Pseudomonas aeruginosa): inactive

- PA (peptide self-association parameter) (D52): 7.78 min
B1: D52 (peptide)
chain: Ac-[dA][dL][dK][dK][dL][dL][dS][dT][dL][dS][dS][dA][dK][dS][dS][dK][dL][dS][dT][dL][dL][dK][dA][dL][dK][dK]-NH2
SMILES: CC(=O)N[C@H](C)C(=O)N[C@H](CC(C)C)C(=O)N[C@H](CCCCN)C(=O)N[C@H](CCCCN)C(=O)N[C@H](CC(C)C)C(=O)N[C@H](CC(C)C)C(=O)N[C@H](CO)C(=O)N[C@@H](C(=O)N[C@H](CC(C)C)C(=O)N[C@H](CO)C(=O)N[C@H](CO)C(=O)N[C@H](C)C(=O)N[C@H](CCCCN)C(=O)N[C@H](CO)C(=O)N[C@H](CO)C(=O)N[C@H](CCCCN)C(=O)N[C@H](CC(C)C)C(=O)N[C@H](CO)C(=O)N[C@@H](C(=O)N[C@H](CC(C)C)C(=O)N[C@H](CC(C)C)C(=O)N[C@H](CCCCN)C(=O)N[C@H](C)C(=O)N[C@H](CC(C)C)C(=O)N[C@H](CCCCN)C(=O)N[C@H](CCCCN)C(N)=O)[C@H](C)O)[C@H](C)O

- PA (peptide self-association parameter) (D26 (K13A, K16A)): 27 min
Molecule: Ac-[dK][dL][dK][dS][dL][dL][dS][dT][dL][dS][dS][dA][dA][dK][dK][dA][dL][dS][dT][dL][dL][dS][dA][dL][dS][dK]-NH2 [D26 (K13A, K16A)]
